Source: patent US20090220432A1, “Imaging agents and methods of using same for detecting multidrug resistance in cancer” (The Johns Hopkins University, priority 2005, published 2009)
“Also recorded” adds a separate entry of the source.

Columns and labels:
[1] = tested on: MCF-7^adr cells; test: Flow cytometry (FACS) of contrast agent uptake; format: cell-based, Human
Protocol: FIG. 4 is a graph showing fluorescence detection of Tat-GdDOTA-TAMRA taken up by MCF-7^wt and MCF-7^adr cells after exposure to 0.5 mg/ml of same for 20 min. Dotted lines represent controls (line “a”: MCF-7^wt; line “b”: MCF-7^adr). Solid lines represent the cells treated with Tat-GdDOTA-TAMRA (line “c”: MCF-7^wt; line “d”: MCF-7^adr). […] A FACSCalibur (Becton Dickinson Biosciences, San Jose, Calif., U.S.A.) was used for flow cytometry. Acquisition and analysis were performed with Cell Quest software (Becton Dickinson Biosciences, San Jose, Calif., U.S.A.).
(§1) In addition to the above experiments, collected cell pellets were incubated with 250 μl of Tat-GdDOTA-TAMRA (0.5 mg/ml in EMEM) for 20 min at 37° C. in the 5% CO2 incubator. After consecutive washing with PBS, cells were fixed in 3% paraformaldehyde for 15 min. As a control, cells were incubated with EMEM alone. To inhibit multidrug resistance mechanisms, 100 μM of DMCD was added to cells for 20 min prior to exposure to Tat-GdDOTA-TAMRA. In each step, cells were washed thoroughly. TAMRA fluorescence was detected in the orange-red region using band-selective emission filters centered around 600 nm.

[2] = tested on: MCF-7^adr cells; test: Fluorescent microscopy of contrast agent uptake; format: cell-based, Human
Protocol: (§2) Cells were treated with 100 μg/ml DMCD prior to the exposure to Tat-GdDOTA-TAMRA. An Eclipse E400 microscope with a C-SHG1 super high pressure mercury lamp and a Coolpix 5000 digital camera (Nikon Inc., Tokyo, Japan) was used for fluorescent microscopy. Exposure time= 1/15 s, magnification=×40.
as §1

[3] = MRI relaxation times of water sample doped with GdDTPA; format: physicochemical; conditions: water sample doped with GdDTPA (0.05 M)
[4] = tested on: wild type KB tumor; conditions: cited from earlier work
[5] = tested on: MCF-7^adr cells; test: Confocal microscopy of contrast agent with DAPI nuclei staining; format: cell-based, Human; conditions: MDR cells, 10 μg/ml for 30 min
Protocol: (§3) Confocal microscopy. MCF-7^wt and MCF-7^adr cell lines were separately seeded in each 4-chamber glass slide (Nalge Nunc International Corp., Naperville, Ill., U.S.A.). Cells were incubated with 250 μl of Tat-GdDOTA-TAMRA (10 μg/ml) for 30 min in the 5% CO2 incubator. Cell nuclei were stained with DAPI ([…]) for 5 min. Cells were fixed with 3% paraformaldehyde for 15 min, and mounted under a coverslip following removal of plastic chambers. Confocal studies were performed with an inverted Zeiss LSM 410 confocal microscope (Carl Zeiss AG, Jena, Germany) using a 40× water immersion lens. In vitro MRI study. […] A saturation recovery snapshot-FLASH pulse sequence with an excitation pulse flip angle of 10 degrees, an echo time of 1.245 ms, and ten T1, saturation recovery delays (50, 100, 250, 500, 1,000, 1,500, 2,000, 3,000, 5,000, 12,000 ms) were used (Bhujwalla, Z. M., Artemov, D., Natarajan, K., Ackerstaff, E. & Solaiyappan, M., “Vasuclar Differences Detected by MRI for Metastatic Versus Nonmetastatic Breast and Prostate Cancer Xenografts”, Neoplasia 3, 143-153 (2002)). Quantitative T1, maps of the samples were reconstructed using custom-written software in the IDL programming environment Research Systems Inc., Boulder, Colo., U.S.A.) that runs on Linux workstations. […]

[6] = tested on: MCF-7^wt cells; test: as above; format: cell-based, Human; conditions: wild type cells, 10 μg/ml for 30 min
Protocol: as §3

[7] = tested on: MCF-7^adr cells; test: In vitro MRI T1 measurement of labeled cells; format: cell-based, Human
Protocol: as §1
(§4) Confocal microscopy. MCF-7^wt and MCF-7^adr cell lines were separately seeded in each 4-chamber glass slide (Nalge Nunc International Corp., Naperville, Ill., U.S.A.). Cells were incubated with 250 μl of Tat-GdDOTA-TAMRA (10 μg/ml) for 30 min in the 5% CO2 incubator. Cell nuclei were stained with DAPI ([…]) for 5 min. Cells were fixed with 3% paraformaldehyde for 15 min, and mounted under a coverslip following removal of plastic chambers. Confocal studies were performed with an inverted Zeiss LSM 410 confocal microscope (Carl Zeiss AG, Jena, Germany) using a 40× water immersion lens. In vitro MRI study. For the in vitro MRI study, the cell labeling procedure followed the protocol used for flow cytometry and microscopy studies, except that 20 µM of cyclosporin A was used, rather than DMCD as a multidrug resistance inhibitor. Cell suspensions were transferred into micro-centrifuge PCR tubes. MRI was carried out on a Bruker horizontal bore 9.4T spectrometer (Bruker Biospin GmbH, Rheinstetten, Germany) equipped with shielded gradients. The Paravision 3.0.2 program (Bruker Biospin GmbH) was used as acquisition software. […] Quantitative T1, maps of the samples were reconstructed using custom-written software in the IDL programming environment Research Systems Inc., Boulder, Colo., U.S.A.) that runs on Linux workstations. Final analysis was performed with the Image) program. (NIH, Bethesda, Md., U.S.A.).

[8] = tested on: MCF-7^wt cells; test: In vitro MRI T1 measurement of labeled cells; format: cell-based, Human
Protocol: as §1, §4

[9] = T1 relaxivity of the agent at 9.4T; format: physicochemical
Excerpt: (§5) Materials. An HIV-1 Tat basic domain peptide-GdDOTA-carboxytetramethylrhodamine conjugates (Tat-GdDOTA-TAMRA, MW=2,989; as shown in FIG. 1) was custom-synthesized by Global Peptide Services, LLC (Fort Collins, Colo., U.S.A.). The specific T1 relaxivity (R,) of the agent at 9.4T is 4.9 (sec·mM)^−1. Monoclonal anti-P-gp [P-7965], streptavidin-QR conjugates [S-2899], and rhodamine 123 [R-8004] were purchased from Sigma Chemical Company (St. Louis, Mo., U.S.A.). Heptakis-(2,6-di-O-methyl)-β-cyclodextrin (DMCD) and cyclosporin A were purchased from Sigma-Aldrich Co. (St. Louis, Mo., U.S.A.). 4′,6-diamidino-2-phenylindole (DAPI) was obtained from Invitrogen Corp. (Carlsbad, Calif., U.S.A.). All other chemicals were obtained as reagent-grade products. Cell lines. Human breast adenocarcinoma (MCF-7^wt) and its multi-drug-resistant variant (MCF-7^adr) were maintained in Eagle's minimum essential medium (EMEM) with 1% penicillin, streptomycin, and 10% fetal bovine serum at 37° C. with 5% CO2. For MCF-7^adr cells, the growth medium was supplemented with 1.5 μM of adriamycin every medium change. Flow cytometry and fluorescent microscopy. Initially, to check P-gp expression and P-gp function of both cell lines, flow cytometry was implemented using a double staining technique as follows. […]

[10] = tested on: MCF-7^wt cells; test: Fluorescent microscopy of contrast agent uptake; format: cell-based, Human; conditions: 0.5 mg/ml for 20 min
Protocol: as §2, §1

[11] = tested on: MCF-7^adr cells; test: Flow cytometry of rhodamine 123 uptake (double staining with anti-P-gp); format: cell-based, Human; conditions: 30 min incubation
Excerpt: as §5

[12] = tested on: MCF-7^wt cells; test: as above; format: cell-based, Human; conditions: 30 min incubation
Excerpt: as §5

[13] = MCF-7^adr, 0.5 mg/ml for 20 min

## COC[C@H]1O[C@@H]2O[C@H]3[C@H](O)[C@@H](OC)[C@@H](O[C@H]4[C@H](O)[C@@H](OC)[C@@H](O[C@H]5[C@H](O)[C@@H](OC)[C@@H](O[C@H]6[C@H](O)[C@@H](OC)[C@@H](O[C@H]7[C@H](O)[C@@H](OC)[C@@H](O[C@H]8[C@H](O)[C@@H](OC)[C@@H](O[C@H]1[C@H](O)[C@H]2OC)O[C@@H]8COC)O[C@@H]7COC)O[C@@H]6COC)O[C@@H]5COC)O[C@@H]4COC)O[C@@H]3COC [DMCD, Heptakis-(2,6-di-O-methyl)-β-cyclodextrin, reference compound]
[1]; MCF-7^adr pre-treated with inhibitor
  uptake of Tat-GdDOTA-TAMRA after MDR inhibitor pre-treatment (FACS): recovered almost to the level typical for wild type cells
[2]; MCF-7^adr pre-treated with inhibitor for 20 min
  retention of Tat-GdDOTA-TAMRA conjugates after MDR inhibitor pre-treatment (microscopy): high retention

## O=C([O-])CN(CCN(CC(=O)[O-])CC(=O)O)CCN(CC(=O)[O-])CC(=O)O.[Gd+3] [GdDTPA]
[3]
  T1 relaxation time: ~25 ms
  T2 relaxation time: ~25 ms

## [C-]#[N+]CC(C)(C)OC.[C-]#[N+]CC(C)(C)OC.[C-]#[N+]CC(C)(C)OC.[C-]#[N+]CC(C)(C)OC.[C-]#[N+]CC(C)(C)OC.[C-]#[N+]CC(C)(C)OC.[Tc] [[^99mTc]SESTAMIBI]
[4]
  retention in tumor: retained

## HIV-1 Tat basic domain peptide-GdDOTA-carboxytetramethylrhodamine conjugates [Tat-GdDOTA-TAMRA]
[5]
  intracellular localization (confocal): significantly less compound and less co-localization with nuclei
[6]
  intracellular localization (confocal): co-localized with nuclei
[1]; [13]
  agent delivered into cells by FACS, in comparison to MCF-7^wt: significantly lower
[7]; MCF-7^adr cells, 0.5 mg/ml agent for 20 min, 9.4T MRI, averaged T1
  T1: 2.05 ± 0.06 s
[7]; MCF-7^adr, treated vs control (Table 1 columns 6 and 7)
  T1 reduction (ΔT1): 0.3 ± 0.11 s
[7]; MDR cells treated with the conjugates alone
  effect on T1 relaxation time: almost no decrease
[8]; MCF-7^wt cells, 0.5 mg/ml agent for 20 min, 9.4T MRI, averaged T1
  T1: 1.79 ± 0.02 s
[8]; MCF-7^wt, treated vs control (Table 1 columns 2 and 3)
  T1 reduction (ΔT1): 0.54 ± 0.11 s
[8]; wild type cells, 0.5 mg/ml
  effect on T1 relaxation time: significantly decreased; also recorded: significantly reduced
[9]
  specific T1 relaxivity: 4.9 s/mM
[2]; [13]
  fluorescence detected by microscopy: Lower or no fluorescence
[10]
  uptake by fluorescence microscopy: Efficient uptake

## rhodamine 123
[11]
  accumulation of rhodamine 123: reduced accumulation
[12]
  accumulation of rhodamine 123: efficient accumulation
